# pIC50: −log10 of the molar value. Where a name gives a salt, the structure may show the parent alone.
# Biological target: T1, human TRPV4 (Homo sapiens, UniProt Q9HBA0)
# T1 construct: expressed in transfected cells
# Test: Fluorometric cell-based Ca2+ flux assay, HEK-293 cells stably overexpressing human TRPV4
# Conditions: HEK-293 stably overexpressing human TRPV4; agonist GSK1016790A 30 nM
# Protocol: Fluorometric cell-based Ca^2+ flux assays were performed to assess TRPV4 antagonist activity and determine potency (IC50 values) in human embryonic kidney-293 cells (HEK-293) that stably overexpress human TRPV4. The assays were performed according to methods described in: Deering-Rice, C. E., Johansen, M. E., Roberts, J. K., Thomas, K. C., Romero, E. G., Lee, J., Yost, G. S., Veranth, J. M., and Reilly, C. A. (2012), Mol. Pharmacol. 81(3), 411-419; Shapiro, D., Deering-Rice, C. E., Romero, E. G., Hughen, R. W., Light, A. R., Veranth, J. M., and Reilly, C. A. (2013), Chem Res. Toxicol., 26, 750-758; and Deering-Rice, C. E., Mitchell, V. K., Romero, E. G., Abdel Aziz, M. H., and Reilly, C. A. (2014), Pharmacol. Res. & Perspectives. 2(5), 1-10.
# The HEK-293 cells stably overexpressing human TRPV4 were grown to confluence in 2% (w/v) gelatin-coated 96-well plates in DMEM:F12 media supplemented with 5% fetal bovine serum, 1× penicillin/streptomycin (Invitrogen) and Geneticin (300 μg/mL).
# The HEK-293 cells were prepared for assay by replacing the growth media with a 1:1 solution of LHC-9 and Fluo 4-Direct (Invitrogen) reagent containing Fluo 4-AM, pluronic F-127, probenecid, and a proprietary quencher dye. The cells were then incubated at 37° C. for 1 h in a cell culture incubator. The cells were subsequently washed by replacing the loading solution with LHC-9 containing 1 mM water-soluble probenecid (Invitrogen), 750 μM Trypan Red (ATT Bioquest), and a test compound (at various concentrations). The cells were incubated for an additional 30 minutes at 37° C. to allow for Fluo 4-AM cleavage and activation, as well as equilibration to both the test compounds and Fluo 4.
# An agonist treatment solution (90 nM GSK1016790A, a potent activator of TRPV4) was prepared in LHC9 at 3× concentration and 25 μL was added to 50 μL of media on the cells in 96 well plates, providing a final concentration of 30 nM. Changes in cellular fluorescence were monitored with a BMG Labtech NOVOStar fluorescence plate reader for 1 minute at 37° C. Data were quantified as the maximum rate of change in fluorescence intensity (max ΔF/s), corrected for media only treatment (negative control), and represented as the percentage of response relative to the no antagonist control. A minimum of three replicates were used for each treatment condition, with a minimum of 8 concentrations to derive the IC50 values reported for each antagonist. The IC50 values for each antagonist, which are shown in Table 4 below, were calculated according to methods described in the assays were performed according to methods described in: Deering-Rice, C. E., Johansen, M. E., Roberts, J. K., Thomas, K. C., Romero, E. G., Lee, J., Yost, G. S., Veranth, J. M., and Reilly, C. A. (2012), Mol. Pharmacol. 81(3), 411-419; Shapiro, D., Deering-Rice, C. E., Romero, E. G., Hughen, R. W., Light, A. R., Veranth, J. M., and Reilly, C. A. (2013), Chem Res. Toxicol., 26, 750-758; and Deering-Rice, C. E., Mitchell, V. K., Romero, E. G., Abdel Aziz, M. H., and Reilly, C. A. (2014), Pharmacol. Res. & Perspectives. 2(5), 1-10.
# T1 sequence (Q9HBA0 whole entry): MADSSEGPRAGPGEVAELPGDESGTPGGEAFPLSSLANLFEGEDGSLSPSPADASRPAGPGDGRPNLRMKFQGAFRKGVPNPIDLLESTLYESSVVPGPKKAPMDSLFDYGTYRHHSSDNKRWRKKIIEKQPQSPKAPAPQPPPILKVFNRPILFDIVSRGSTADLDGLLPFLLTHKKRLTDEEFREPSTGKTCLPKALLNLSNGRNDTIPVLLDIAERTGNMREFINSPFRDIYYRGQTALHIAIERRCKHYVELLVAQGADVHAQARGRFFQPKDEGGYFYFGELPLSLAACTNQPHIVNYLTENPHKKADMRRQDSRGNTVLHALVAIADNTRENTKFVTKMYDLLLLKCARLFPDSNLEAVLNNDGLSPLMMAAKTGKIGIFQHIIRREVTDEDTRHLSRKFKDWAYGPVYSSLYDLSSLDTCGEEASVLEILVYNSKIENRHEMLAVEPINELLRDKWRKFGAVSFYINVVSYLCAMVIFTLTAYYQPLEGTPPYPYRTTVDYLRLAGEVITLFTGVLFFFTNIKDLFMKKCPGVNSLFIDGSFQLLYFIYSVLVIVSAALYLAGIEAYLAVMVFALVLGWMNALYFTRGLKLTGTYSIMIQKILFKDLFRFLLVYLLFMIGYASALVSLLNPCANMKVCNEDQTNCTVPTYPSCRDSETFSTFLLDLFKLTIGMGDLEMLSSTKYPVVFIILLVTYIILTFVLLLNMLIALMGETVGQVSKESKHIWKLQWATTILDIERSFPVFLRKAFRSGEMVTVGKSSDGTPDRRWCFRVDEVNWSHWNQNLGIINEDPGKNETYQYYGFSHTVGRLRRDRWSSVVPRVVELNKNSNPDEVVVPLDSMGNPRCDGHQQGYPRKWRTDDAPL
row,pIC50,SMILES
1,7.73,"COCCNCC1(COc2ccc(C#N)c(F)c2)CN(S(=O)(=O)c2ccc(Cl)cc2Cl)C1 [Compound 21, 4-((1-((2,4-dichlorophenyl)sulfonyl)-3-(((2-methoxyethyl)amino)methyl)azetidin-3-yl)methoxy)-2-fluorobenzonitrile hydrochloride]"
2,6.10,"N#Cc1ccc(OCC2(CN3CCOCC3)CN(S(=O)(=O)c3ccc(Cl)cc3Cl)C2)cc1F [Compound 50, 4-((1-((2,4-Dichlorophenyl)sulfonyl)-3-(morpholinomethyl)azetidin-3-yl)methoxy)-2-fluorobenzonitrile hydrochloride]"
3,8.89,"N#Cc1ccc(OCC2(CN[C@H]3C[C@H](O)C3)CN(S(=O)(=O)c3ccc(Cl)cc3Cl)C2)cc1F [Compound 42, 4-((1-((2,4-Dichlorophenyl)sulfonyl)-3-((((trans)-3-hydroxycyclobutyl)amino)methyl)azetidin-3-yl)methoxy)-2-fluorobenzonitrile hydrochloride]"
4,5.92,"N#Cc1ccc(OCC2(CO)CN(S(=O)(=O)c3ccc(OC(F)(F)F)cc3Br)C2)cc1F [Compound 105, 4-((1-((2-Bromo-4-(trifluoromethoxy)phenyl)sulfonyl)-3-(hydroxymethyl)azetidin-3-yl)methoxy)-2-fluorobenzonitrile]"
5,9.70,"CC(CO)CNCC1(COc2ccc(C#N)c(F)c2)CN(S(=O)(=O)c2ccc(Cl)cc2Cl)C1 (stereo not shown) [Compound 34, 4-((1-((2,4-Dichlorophenyl)sulfonyl)-3-(((3-hydroxy-2-methylpropyl)amino)methyl)azetidin-3-yl)methoxy)-2-fluorobenzonitrile hydrochloride]"
6,4.89,"N#Cc1ccc(OCC2(C(=O)NC3CCOCC3)CN(S(=O)(=O)c3ccc(Cl)cc3Cl)C2)cc1 [Compound 6, 3-((4-cyanophenoxy)methyl)-1-((2,4-dichlorophenyl)sulfonyl)-N-(tetrahydro-2H-pyran-4-yl)azetidine-3-carboxamide]"
7,5.30,"N#Cc1ccc(OCC2(CO)CN(S(=O)(=O)c3cc(Cl)cc(Cl)c3)C2)cc1F [Compound 68, 4-((1-((3,5-Dichlorophenyl)sulfonyl)-3-(hydroxymethyl)azetidin-3-yl)methoxy)-2-fluorobenzonitrile]"
8,5.52 to 6.00,"O=S(=O)(c1ccc(Cl)cc1Cl)N1CC(CO)(COc2ccc(F)c(F)c2)C1 [Compound 87, (1-((2,4-Dichlorophenyl)sulfonyl)-3-((3,4-difluorophenoxy)methyl)azetidin-3-yl)methanol]"
9,< 6.07,"COC(=O)c1ccc(S(=O)(=O)N2CC(CO)(COc3ccc(C#N)c(F)c3)C2)c(Cl)c1 [Compound 80, Methyl 3-chloro-4-((3-((4-cyano-3-fluorophenoxy)methyl)-3-(hydroxymethyl)azetidin-1-yl)sulfonyl)benzoate]"
10,8.89,"N#Cc1ccc(OCC2(CN[C@H]3CC[C@@H](O)CC3)CN(S(=O)(=O)c3ccc(Cl)cc3Cl)C2)cc1F [Compound 39, 4-((1-((2,4-Dichlorophenyl)sulfonyl)-3-((((cis)-4-hydroxycyclohexyl)amino)methyl)azetidin-3-yl)methoxy)-2-fluorobenzonitrile hydrochloride]"
11,5.96,"N#Cc1ccc(OCC2(C(N)=O)CN(S(=O)(=O)c3ccc(Cl)cc3Cl)C2)cc1F [Compound 9, 3-((4-Cyano-3-fluorophenoxy)methyl)-1-((2,4-dichlorophenyl)sulfonyl)azetidine-3-carboxamide]"
12,5.30,"N#Cc1ccc(OCC2(CO)CN(S(=O)(=O)c3cccc(C(F)(F)F)c3)C2)cc1F [Compound 70, 2-Fluoro-4-((3-(hydroxymethyl)-1-((3-(trifluoromethyl)phenyl)sulfonyl)azetidin-3-yl)methoxy)benzonitrile]"
13,9.40,"C[C@H](O)CNCC1(COc2ccc(C#N)c(F)c2)CN(S(=O)(=O)c2ccc(Cl)cc2Cl)C1 [Compound 31, (S)-4-((1-((2,4-dichlorophenyl)sulfonyl)-3-(((2-hydroxypropyl)amino)methyl)azetidin-3-yl)methoxy)-2-fluorobenzonitrile hydrochloride]"
